The values below are quoted from earlier work in patent US20010046548A1, “Anticholesterolemic edible oil” (priority 1998, published 2001).

With `CC[C@H](CC[C@@H](C)[C@H]1CC[C@H]2[C@@H]3CC=C4C[C@@H](O)CC[C@]4(C)[C@H]3CC[C@]12C)C(C)C` [beta-sitosterol], the fraction absorbed result (ingested, small intestine) is reported as “less than 5%”. In the case of `CC[C@H](CC[C@@H](C)[C@H]1CC[C@H]2[C@@H]3CC[C@H]4C[C@@H](O)CC[C@]4(C)[C@H]3CC[C@]12C)C(C)C` [sitostanol], the absorption entry (in vivo) was “completely unabsorbed”.
